Source: patent US5173486A, “Dibenz[b,f][1,4]oxazepin-11(10H)-ones for multidrug resistance reversing agents” (Bristol-Myers Squibb Company, priority 1991, dated 1992)
pIC50: −log10 of the molar value. Where “and” joins values, the source holds several entries; their conditions need not be identical. Equal values may be shown once. Read-outs that look alike come from different tables or passages of the source. *1 amine or outer side, *2 acyl side, *3 side chain or, on linkers, in order; H or OH if unused. Where a SMILES comes first, the peptide text is derived from it. Bridges are numbered along the chain shown (N, C = ends). Roman numbers before positions name the chains, in order. [ ]: non-standard residue; d: D form. Actinocin(9to1) = Cc1c2oc3c(C)ccc(C(=O)[*:1])c3nc-2c(C(=O)[*:2])c(N)c1=O; NMeV = CN[C@H](C(=O)O)C(C)C; Sar = CNCC(=O)O

Experiments:
Assay type in all cases: cell-based
MCF-7 cells = assay: Cytotoxic assay, Adriamycin in sensitive human breast carcinoma MCF-7 cells; conditions: MCF-7 (sensitive); ADR; no chemosensitizer; 2880 min
Method: (§1) Cell Culture: HCT116/VM46 cells were selected from human colon carcinoma HCT116 cell line for resistance to VM26 and MCF-7/ADR cells were selected from human breast carcinoma MCF-7 cell line for resistance to Adriamycin. […] The cell lines were grown in tissue culture flasks containing McCoy's A medium and 10% fetal bovine serum. Cells were maintained at 37° C. in a humidified atmosphere containing 5% CO2 and subcultured every 5 days.
(§2) Cytotoxic Assay: The cells were seeded in 96 well microtiter plates at 5×10^3 cells per well and allowed to grow for 24 hours at 37° C. Cells were then incubated with decreasing amounts of antitumor agents: Adriamycin (100 μM, maximal concentration) or actinomycin D (17.6 ng/ml), for MCF-7 and HCT-116 cells, respectively. Chemosensitizers were added at variable concentrations ranging from 0.08 μM to 40 μM. In parallel, verapamil was used as positive control at the same concentrations. After 48 hours of incubation, the cells were washed, fixed and stained with crystal violet. Absorbance was read by Molecular Devices' microtiter plate reader at the wavelength of 595nm. The IC50 value (50% inhibition of cell growth) was determined from relative survival rates resulted from two to three independent experiments. […]

MCF-7/ADR cells = assay: Cytotoxic assay, MDR reversing effects of chemosensitizers with Adriamycin in human breast carcinoma MCF-7 resistant cells; conditions: for Fold Resistance: ADR; for pIC50: read-out: ADR IC50
Method: as §1
(§3) Cytotoxic Assay: The cells were seeded in 96 well microtiter plates at 5×10^3 cells per well and allowed to grow for 24 hours at 37° C. Cells were then incubated with decreasing amounts of antitumor agents: Adriamycin (100 μM, maximal concentration) or actinomycin D (17.6 ng/ml), for MCF-7 and HCT-116 cells, respectively. Chemosensitizers were added at variable concentrations ranging from 0.08 μM to 40 μM. In parallel, verapamil was used as positive control at the same concentrations. After 48 hours of incubation, the cells were washed, fixed and stained with crystal violet. Absorbance was read by Molecular Devices' microtiter plate reader at the wavelength of 595nm. The IC50 value (50% inhibition of cell growth) was determined from relative survival rates resulted from two to three independent experiments. The term "fold resistance" was defined as the ratio of the IC50 for antitumor drug in the presence or absence of chemosensitizer in resistant cells divided by the IC50 for antitumor drug in its sensitive counterpart. This value provides an estimate of the apparent potency of each reversing agent in enhancing drug effect.

HCT116 cells = assay: Cytotoxic assay, actinomycin D in sensitive human colon carcinoma HCT116 cells; conditions: no chemosensitizer
Method: as §1, §2

HCT-116/VM46 cells = assay: Cytotoxic assay, MDR reversing effects of chemosensitizers with actinomycin D in human colon carcinoma HCT-116 resistant cells; conditions: for Fold Resistance: ActD; for ActD IC50: 48 hours
Method: as §1, §3

[1] = chemosensitizer 0.4 μM, IC50 ratio to sensitive HCT116

SMILES: COc1cccc2c1C(=O)c1c(O)c3c(c(O)c1C2=O)C[C@@](O)(C(=O)CO)C[C@@H]3O[C@H]1C[C@H](N)[C@H](O)[C@H](C)O1 [ADR, reference compound]
- Fold Resistance (MCF-7 cells): 1
- Fold Resistance (MCF-7/ADR cells; no chemosensitizer, IC50 ratio to sensitive MCF-7, 2880 min): 138.9
- pIC50 (MCF-7/ADR cells; Homo sapiens, 48 h): 4.30

SMILES: Cc1c2oc3c(C)ccc(C(=O)N[C@@H]4C(=O)N[C@H](C(C)C)C(=O)N5CCC[C@H]5C(=O)N(C)CC(=O)N(C)[C@@H](C(C)C)C(=O)O[C@@H]4C)c3nc-2c(C(=O)N[C@@H]2C(=O)N[C@H](C(C)C)C(=O)N3CCC[C@H]3C(=O)N(C)CC(=O)N(C)[C@@H](C(C)C)C(=O)O[C@@H]2C)c(N)c1=O [ActD, reference compound] (I: T[dV]P[Sar][NMeV] / II: T[dV]P[Sar][NMeV]; ester I:1-I:C, II:1-II:C; linker I:N-II:N via Actinocin(9to1))
- Fold Resistance (HCT116 cells; ActD, 2880 min): 1.0
- ActD IC50 (HCT116 cells; 48 hours): 0.5 ng/mL
- Fold Resistance (HCT-116/VM46 cells; no chemosensitizer, IC50 ratio to sensitive HCT116, 2880 min, 2880 min): 15.6 and 20.0

SMILES: CCN(CC)CCN1C(=O)c2cc(Cl)c(NC(=O)C(C)C)cc2Oc2cc(C(F)(F)F)ccc21 [Ii, N-[2-Chloro-10,11-dihydro-10-[2-(diethylamino)ethyl-11-oxo-7-(trifluoromethyl)dibenz[b.f]1,4]oxezpin-3-yl]-2-methylpropionamide]
- Fold Resistance (HCT-116/VM46 cells; [1]): 3.4
- ActD IC50 (HCT-116/VM46 cells; chemosensitizer 0.4 μM): 1.7 ng/mL
- Fold Resistance (MCF-7/ADR cells; chemosensitizer 0.67 μM, IC50 ratio to sensitive MCF-7): 28.9
- pIC50 (MCF-7/ADR cells; chemosensitizer 0.67 μM, 48 hours): 4.98

SMILES: C=C(CC)C(=O)c1ccc(OCC(=O)Nc2cc3c(cc2Cl)C(=O)N(CCN(CC)CC)c2ccc(C(F)(F)F)cc2O3)c(Cl)c1Cl [Io]
- Fold Resistance (HCT-116/VM46 cells; [1]): 3.6
- ActD IC50 (HCT-116/VM46 cells; chemosensitizer 0.4 μM): 1.8 ng/mL

SMILES: CCN(CC)CCN1C(=O)c2cc(Cl)c(NC(=O)C3CCCC3)cc2Oc2cc(C(F)(F)F)ccc21 [Ip]
- Fold Resistance (HCT-116/VM46 cells; chemosensitizer 0.24 μM, IC50 ratio to sensitive HCT116): 3.4
- ActD IC50 (HCT-116/VM46 cells; chemosensitizer 0.24 μM): 1.7 ng/mL
